According to US20220243177A1, “METHODS OF CULTURING QUIESCENT HEMATOPOIETIC STEM CELLS AND TREATMENT METHODS” (priority 2019, published 2022):

Key:
[1] = tested on: MMP-low and MMP-high HSCs; experiment: Immunofluorescence staining and laser scanning confocal microscopy of treated HSCs; assay type: cell-based, mouse; details: ConA 40 nM, 18 hours
Procedure: Immunofluorescence Staining, Imaging, and Analysis—Laser Scanning Confocal Microscopy: FACS purified MMP-low and MMP-high HSCs (in average pooled from three mice) were seeded into retronectin-coated channel slides (Ibidi Cat# 80626) and fixed for 15 minutes with 10% formalin (1,000 cells). After washing with PBS, cells were permeabilized in PBS+0.25% Triton™ X-100 for 15 minutes and blocked for 1 hour in 3% BSA. Fixed and permeabilized cells were then incubated with primary antibodies (1:150) in PBS+1% BSA overnight at 4° C., washed and stained with fluorescence-conjugated secondary antibodies (1:1,000) for 1 hour at room temperature. Slides were sealed with mounting medium with DAPI. Images were captured using a Zeiss LSM880 Airyscan confocal microscope using a 100× objective (N.A. 1.46).
For analysis by immunofluorescence staining, MMP-low and MMP-high HSCs were FACS-purified and incubated in StemSpan medium containing SCF (100 ng/ml) and TPO (20 ng/ml) for the indicated time with the indicated compounds at 37° C. in a humidified atmosphere with 5% CO2. After treatment, cells were processed for confocal imaging as described above.
Fluorescence Intensity: Channel displaying the protein of interest were isolated and quantified on a per cell basis using the raw integrated density metric generated by the measure command. For nuclear intensity, DAPI thresholds were used to delimit the nucleus and mapped back onto the channel displaying the protein of interest to determine fluorescence intensity within the nucleus only.

[2] = tested on: MMP-low and MMP-high LSK cells; experiment: Metabolic assays (Seahorse OCR and ECAR); assay type: cell-based, mouse; details: ConA 40 nM, 18 hours
Procedure: Metabolic Assays. Oxygen consumption rates (“OCR”) and extracellular acidification rates (“ECAR”) were measured using a 96-well Seahorse Bioanalyzer XF 96 according to manufacturer's instructions using Seahorse Mito Stress Test or Glycolysis Stress Test kit (Agilent Technologies). In brief, MMP-low and MMP-high LSK cells isolated from a pool of at least 11 mice (40,000 cells per well) were sorted and treated with or without ConA (40 nM) for 18 hours in StemSpan media with SCF (10 ng/mL) and TPO (20 ng/mL). Cells were washed and suspended in XF basic medium with 11 mM glucose, 1 mM sodium pyruvate and 2 mM glutamine (pH 7.4 at 37° C.). The injection port A on the sensor cartridge was loaded with […] oligomycin (Oligo), 2 mM FCCP was loaded into port B and 0.5 mM rotenone/antimycin (ROT/AA) A was loaded into port C. During sensor calibration, the cells were incubated in the 37° C. non-CO2 incubator. The plate was immediately placed onto the calibrated XF96 extracellular flux analyzer for the Mito Stress Test. For the glycolysis stress test, cells were suspended in XF basic medium in 1 mM glutamine (pH 7.4 at 37° C.). The injection port A on the sensor cartridge was loaded with 10 mM glucose. Then, 2 mM oligomycin was loaded into port B and 50 mM 2-DG into port C. During sensor calibration, cells were incubated in the 37° C. non-CO2 incubator. The plate was immediately placed in the calibrated XF96 extracellular flux analyzer for the glycolysis stress test.

[3] = tested on: bone marrow lineage-negative cells; experiment: Lineage negative bone marrow cell culture, HSC frequency and MMP; assay type: cell-based, mouse; details: ConA 100 nM
Procedure: For measuring MMP and proliferation, lineage negative bone marrow (BM) cells were enriched with the EasySep Mouse hemato- poietic progenitor kit. Lineage negative (1 3 106) cells (isolated separately from four mice) were seeded onto 6 well plates in Stem-Span medium containing SCF (100 ng/ml) and TPO (20 ng/ml). Cells were treated with ConA (100nM) or the DMSO control and analyzed at 0, 6, 12 and 24 hour-time points by flow cytometry for HSC (LSKCD150+CD48−) frequencies or MMP-low and MMP- high HSCs frequencies or MMP (TMRE).

[4] = tested on: MMP-low and MMP-high HSCs of CAG-RFP-EGFP-LC3 bone marrow; experiment: CAG-RFP-EGFP-LC3 assay; assay type: cell-based, mouse; details: ConA 40 nM, 3 hours; superior to starving condition
Procedure: CAG-RFP-EGFP-LC3 Assay. Total BM cells from CAG-RFP-EGFP-LC3 mice were cultured in StemSpan with SCF (10 ng/mL) and TPO (20 ng/mL) at 8×10^6 cells/ mL. Cells were either incubated with ConA (40 nM), chloroquine (CQ, […]), leupeptin ([…]) or DMSO control, or -starved amino acid-depleted RPMI 1640 media for 3 hours to induce autolysosome accumulation. Both GFP and mRFP are expressed in a single transgene, both green and red fluorescence is emitted from the same LC3 molecule, with 1:1 stoichiometry, thus allowing a more-accurate quantification of autophagosomes and autolysosomes measured by flow cytometry 3 hours post-treatment. Given the fluorescent incompatibility, only frequency of HSC with autophagosome (RFP^+GFP^+-LC3) or autolysosome formation (RFP^+-LC3) normalized to conditions with MMP-low against MMP-high HSCs was determined.

[5] = tested on: MMP-low and MMP-high LT-HSCs transplanted into lethally irradiated mice; experiment: Competitive in vivo long-term reconstitution assay after ex vivo lysosomal inhibition; design: species or system mouse
Procedure: Competitive In Vivo Long-Term Reconstitution Assay: MMP-low and MMP-high HSCs (LSKCD150^+CD48^−, LT-HSC; MMP^low/high) were FACS purified from CD45.1 mice and transplanted at the indicated dose of test cells with 2×10^5 CD45.2 bone marrow cells into lethally irradiated CD45.2 recipients (12 Gy as a split dose, 6.5 and 5.5 Gy, 4 hours apart). Donor (CD45.1) and recipient (CD45.2) mice were 8-12 weeks old. HSC frequency was determined by the limiting dilution assay (Hu & Smith, “ELDA: Extreme Limiting Dilution Analysis for Comparing Depleted and Enriched Populations in Stem Cell and Other Assays,” J. Immunol. Methods 347:7 0-78 (2009), which is hereby incorporated by reference in its entirety) based on the number of mice with […] reconstitution (CD45.1) at 16 weeks.
To assay the effect of HSC lysosomal inhibition in a in vivo competitive long-term reconstitution assay: FACS-sorted MMP-low and -high LT-HSCs (CD45.1) were treated with Concanamycin A (ConA,40 nM) or DMSO control in 96 well plates containing StemSpan with SCF (100 ng/ml) and TPO (20 ng/ml) for 4 days, after which 50 cells from each group were mixed with 2×10^5 CD45.2 total bone marrow cells and injected into lethally irradiated CD45.2 recipients and reconstituted peripheral blood was monitored up to four months.

[6] = aging MMP-low and MMP-high HSCs
[7] = ConA 40 nM ex vivo 4 days, 50 cells transplanted

In the case of `C/C=C/[C@H]1O[C@@](O)([C@@H](C)[C@H](O)[C@H](C)[C@H]2OC(=O)/C(OC)=C/C(C)=C/[C@@H](C)[C@@H](O)[C@@H](CC)[C@@H](O)[C@H](C)C/C(C)=C/C=C/[C@@H]2OC)C[C@@H](O[C@H]2C[C@@H](O)[C@H](OC(N)=O)[C@@H](C)O2)[C@@H]1C` [ConA, concanamycin A], the “lysosomal phenotype (LAMP2)” value [1] is reported as “bloated lysosomal phenotype”, the “mTOR co-localization with lysosomes in MMP-high HSCs” value [1] is reported as “lost” and the “expression of Ki67 and CDK6” value ([1]; MMP-high HSCs) is reported as “restored in ConA-treated MMP-high HSCs to the levels of the untreated MMP-low HSCs”. The “mTOR signaling (mTOR, RHEB, RAGA/B, p4EBP1) in MMP-high HSCs” value ([1]; almost to levels of rapamycin (40 nM)-treated HSCs) was “repression of mTOR signaling”, the “mTOR activity in old HSCs” value ([1]; aging HSCs) was “reduced/abolished mTOR activity” and the “cycling status (CDK6 staining) of aging HSCs” value [1, 6] was “reverted the cycling status”. The “lysosomal content in old HSCs” value [1, 6] was “increasing lysosomal content”, the “glycolysis (ECAR) in MMP-high and MMP-low HSPCs” value [2] was “collapsed glycolysis” and the “oxygen consumption in MMP-low HSPCs” value [2] was “only a relatively small effect”. The “oxygen consumption in primed (MMP-high) HSPCs” value [2] was “drastically decreased oxygen consumption”, the “MMP in recovered cells” value ([3]; 12-24 hours) was “relative decrease of MMP” and the “frequency of HSCs recovered from 24-hour in vitro culture” value ([3]; 24 hours) was “improved frequency”. For the same compound, the “retention of the MMP-low HSC fraction” value ([3]; twenty-four-hour) was “greater retention”, the “frequency of autolysosome (RFP+)-accumulated MMP-high and MMP-low HSCs” value [4] was “specifically promoted the frequency” and the “blood production in secondary transplants” value ([5]; 38 weeks post-initial transplantation) was “increased balanced blood production”. The “production of lineages downstream of MMP-high HSCs” value ([5]; ConA 40 nM ex vivo 4 days) was “balanced the production of lineages”, the “increase of in vivo competitive repopulation ability, MMP-high HSCs” value [5, 7] was “over 90 fold” and the “increase of in vivo competitive repopulation ability, MMP-low HSCs” value [5, 7] was 9 fold. The “HSC self-renewal in secondary transplantations” value ([5]; young HSCs, ex vivo ConA) was “increased HSC self-renewal”.
